Experimental data: patent publication US10077246B2, “Tricyclic prodrugs” (Glactone Pharma Development AB, priority 2014, dated 2018)

Key:
[1] = Pharmacokinetic (PK) study in mice, oral dosing, galiellalactone quantified in plasma; format: in vivo; details: for AUC 0-t / AUC 0-∞ / plasma exposure of galiellalactone compared to oral administration of galiellalactone itself (in words): oral 10 mg/kg; for AUC 0-t / AUC 0-∞: galiellalactone (GL) in plasma; for AUC 0-t: 0 minutes to last quantifiable data point; for AUC 0-∞: extrapolated to infinity
Procedure: The usefulness of the compounds, as defined in the embodiments herein, as prodrugs to enhance the plasma exposure of tricyclic compounds that may be used treating, revoking, mitigating, alleviating and/or preventing different forms of cancer, were evaluated in an in vivo pharmacokinetic (PK) study in mice.
Doses of the test items were prepared at a drug concentration of 0.5 mg/mL in 5% DMSO in 50 mM citrate buffer (citric acid/sodium citrate), pH 4.0.
Oral doses were administered in a volume of 20 mL/kg (10 mg/kg) to groups of 24 mice and blood samples taken, under terminal barbiturate anaesthesia, at eight time-points out to 8 hours post-dose (n=3 mice per time-point).
Blood samples were transferred to tubes containing EDTA as anticoagulant and, as soon as practicable after collection, samples were centrifuged to yield plasma which was immediately frozen awaiting analysis. Following blood collection, brains were removed from all animals for possible future analysis and immediately frozen by immersion in liquid nitrogen. All samples were analyzed using LC-MS/MS.
Plasma proteins were precipitated and compounds extracted by the addition of three volumes of acetonitrile containing analytical internal standard (reserpine). Samples were centrifuged for 30 minutes at 3452 g in a Sorvall bench centrifuge and the supernatant fractions removed for MS analysis.
Quantification of the active compound e.g. galiellalactone, was by extrapolation from calibration lines prepared in control mouse plasma and analyzed concurrently with experimental samples and Quality Control (QC) samples prepared in control mouse plasma. If the compounds were instable in mouse plasma, calibration lines were constructed in water for qualitative MS comparison with any signal seen in plasma samples.
Pharmacokinetic parameters of the test items were determined using the mean data from the n=3 mice at each time-point. Non-compartmental analysis was performed using the software package PK Solutions 2.0 from Summit Research Services. AUC values were calculated by the trapezoidal method.
AUC 0-t: Area under the plasma drug concentration/time curve from 0 minutes to last quantifiable data point
AUC 0-∞: Area under the curve from 0 minutes extrapolated to infinity

[2] = Chemical stability in phosphate buffered saline; format: physicochemical; details: for chemical stability in 0.1 M PBS (in words): 0.1 M PBS (pH 7.4); for half-life at 10 μM: 0.1 M phosphate buffered saline, 0.1 M PBS pH 7.4, 10 μM, room temperature
Procedure: The chemical stability of test compounds was determined in 96-well plate format. Compounds in DMSO stock solutions were diluted (n=2) in the required matrix (0.1 M phosphate buffered saline) to a concentration of 10 μM (2% DMSO final) and mixed at room temperature on an orbital shaker, with aliquots removed at 2 and 4 hours for testing. DMSO, containing an analytical internal standard, was added to the aliquots, vortex-mixed and analysed immediately by LC-MS/MS. Equivalent T=0 samples were also included, with sample preparation staggered to allow sequential injections of timed aliquots and the T=0 samples.
The amount of compound remaining (expressed as %) was determined from the MS response in each sample relative to that in the T=0 samples (normalized for internal standard).
Ln plots of the % remaining were used to determine the half-life of compound disappearance from the relationship:
t1/2 (min)=−0.693/λ, where λ is the slope of the Ln concentration vs time curve.

DU145 = assay: WST-1 cell proliferation assay, DU145; format: cell-based; details: DU145 (pSTAT3 +), 72 hours/10 μM, percent of untreated control cells
Procedure: (§1) The functional activity of example 15 in comparison to galiellalactone was evaluated using WST-1 proliferation assay (J. Biol. Chem. 2014, 289:15969-15978) on DU145, PC-3, LNCaP or IL-6 stimulated LNCaP. The cells were cultured in 96-well plates (2000 cells/well in 200 μl of medium) and allowed to set for 24 h. The cells were treated with 10 μM of 4α-fluoro-galiellalactone or galiellalactone for 72 h. Samples were made in triplicate. 20 μl WST-1 solution (Roche Applied Science) was added per well and incubated at 37° C. for 4 h. The absorbance of each well was measured using a scanning multi-well spectrophotometer, ELISA reader at a wavelength of 450 nm and reference wavelength of 690 nm. The results presented in Table 3 below are presented as percent of untreated control cells.

PC-3 = assay: WST-1 cell proliferation assay, PC-3; format: cell-based; details: PC3 (pSTAT3 −), 72 hours/10 μM, percent of untreated control cells
Procedure: as §1

LNCaP = assay: WST-1 cell proliferation assay, LNCaP; format: cell-based; details: LNCaP (pSTAT3 −), 72 hours/10 μM, percent of untreated control cells
Procedure: as §1

IL-6 stimulated LNCaP = assay: WST-1 cell proliferation assay, IL-6 stimulated LNCaP; format: cell-based; details: LNCaP-IL6 (pSTAT3 +), 72 hours/10 μM, percent of untreated control cells
Procedure: as §1

STAT3 = assay: WST-1 proliferation, pSTAT3 negative versus pSTAT3 positive cell lines; format: cell-based; details: 10 μM; pSTAT3 negative PC3, LNCaP versus pSTAT3 positive cells
Procedure: as §1
On the other hand, the pSTAT3 positive cells are equally sensitive to 4α-fluoro-galiellalactone and galiellalactone.

IL-6/STAT3 signaling = details: cited from earlier work
[3] = test system: STAT3 expressing DU145 prostate cancer cells; details: Prostate 68:269-280 (2008); cited from earlier work

Row | SMILES | AUC 0-t [1] [μg GL/mL•min] | AUC 0-∞ [1] [μg GL/mL•min] | half-life at 10 μM [2] [h] | other results
1 | CCCCS[C@H]1C2C(=O)O[C@@H]3CC[C@H](C[C@@H]1C)[C@]23O (stereo partly drawn) [Example 1, 3β-(Butyllthio)-2aβ,3-dihydrogaliellalactone] | 85 | 102 | – | –
2 | C[C@H]1C[C@H]2CC[C@H]3OC(=O)C([C@@H]1Sc1ccccc1)[C@@]23O (stereo partly drawn) [Example 2, 3β-(Phenylthio)-2aβ,3-dihydrogaliellalactone] | 36 | 41 | – | –
3 | CC(=O)N[C@@H](CS[C@H]1C2C(=O)O[C@@H]3CC[C@H](C[C@@H]1C)[C@]23O)C(N)=O (stereo partly drawn) [Example 7, 3β-(N-acetyl L-cysteine amide)-2aβ,3-dihydrogaliellalactone] | – | – | > 2.5 | –
4 | C[C@H]1C[C@H]2CC[C@H]3OC(=O)C([C@@H]1SCCS(=O)(=O)[O-])[C@@]23O.[Na+] (stereo partly drawn) [Example 8, 3β-(ethyl sulphonate)-2aβ,3-dihydrogaliellalactone sodium] | – | – | > 2.5 | –
5 | C[C@H]1C[C@H]2CC[C@H]3OC(=O)C([C@@H]1SCC(NC(=O)CCC(N)C(=O)O)C(=O)NCC(=O)O)[C@@]23O (stereo partly drawn) [Example 9, 3β-(glutathione)-2aβ,3-dihydrogaliellalactone] | – | – | > 2.5 | –
6 | COC(=O)[C@H](CCS[C@H]1C2C(=O)O[C@@H]3CC[C@H](C[C@@H]1C)[C@]23O)NC(C)=O (stereo partly drawn) [Example 12, 3β-(N-acetyl-L-homocysteinemethyl ester)-2aβ,3-dihydrogaliellalactone] | 150 | 155 | – | –
7 | COC(=O)[C@H](CS[C@H]1C2C(=O)O[C@@H]3CC[C@H](C[C@@H]1C)[C@]23O)NC(=O)c1ccccc1F (stereo partly drawn) [Example 13, 3β-(N-(2-fluorobenzoyl)-L-cysteinemethyl ester)-2aβ,3-dihydrogaliellalactone] | 7.8 | 11 | – | –
8 | C[C@@]1(F)C=C2C(=O)O[C@@H]3CC[C@H](C1)[C@]23O [Example 15, 4α-fluoro-galiellalactone] | – | – | – | % Remaining Proliferation (DU145): 16%; % Remaining Proliferation (PC-3): 68%; % Remaining Proliferation (LNCaP): 105%; % Remaining Proliferation (IL-6 stimulated LNCaP): 20%; selectivity for STAT3 compared with galiellalactone (in words) (STAT3): significantly more selective
9 | C[C@@H]1C=C2C(=O)O[C@@H]3CC[C@H](C1)[C@]23O [Galiellalactone, (−)-Galiellalactone, reference compound] | 5 | 6 | – | AUC(0-inf) ([1]; mouse, oral administration 10 mg/kg, plasma galiellalactone): 95 ng·h/mL; % Remaining Proliferation (DU145): 18%; % Remaining Proliferation (PC-3): 31%; % Remaining Proliferation (LNCaP): 77%; % Remaining Proliferation (IL-6 stimulated LNCaP): 17%; inhibition of IL-6/STAT3 signaling (IL-6/STAT3 signaling): submicromolar; proliferation of DU145 prostate cancer cells (in words) [3]: inhibits the proliferation
10 | C[C@H]1C[C@H]2CC[C@H]3OC(=O)C([C@@H]1N1CCCC1)[C@@]23O.Cl (stereo partly drawn) [drawing 42, 3β-(N-pyrrolidine)-2aβ,3-dihydrogaliellalactone, reference compound] | 2.2 | 2.5 | – | plasma exposure of galiellalactone compared to oral administration of galiellalactone itself (in words) [1]: do not increase the AUC; chemical stability in 0.1 M PBS (in words) [2]: very unstable
11 | C[C@H]1C[C@H]2CC[C@H]3OC(=O)C([C@@H]1N1CCCC1)[C@@]23O.Cl (stereo partly drawn) [drawing 45, reference compound] | – | – | 0.3 | –
12 | C[C@H]1C[C@H]2CC[C@H]3OC(=O)C([C@@H]1SCC(N)C(=O)O)[C@@]23O (stereo partly drawn) [reference compound] | – | – | 0.233 | –

Second part, led by results:

Row | AUC 0-t [1] [μg GL/mL•min] | AUC 0-∞ [1] [μg GL/mL•min] | half-life at 10 μM [2] [h] | SMILES | other results
13 | 117 | 120 | > 2.5 | COC(=O)[C@H](CS[C@H]1C2C(=O)O[C@@H]3CC[C@H](C[C@@H]1C)[C@]23O)NC(C)=O (stereo partly drawn) [Example 3, 3β-(N-acetyl L-cysteinemethyl ester)-2aβ,3-dihydrogaliellalactone] | plasma exposure of galiellalactone compared to oral administration of galiellalactone itself (in words) [1]: significantly improve; chemical stability in 0.1 M PBS (in words) [2]: chemically stable
14 | 20 | 22 | – | CCOC(=O)[C@H](CS[C@H]1C2C(=O)O[C@@H]3CC[C@H](C[C@@H]1C)[C@]23O)NC(C)=O (stereo partly drawn) [Example 4, 3β-(N-acetyl L-cysteineethyl ester)-2aβ,3-dihydrogaliellalactone] | –
15 | 15 | 21 | > 2.3 | COC(=O)[C@H](CS[C@H]1C2C(=O)O[C@@H]3CC[C@H](C[C@@H]1C)[C@]23O)NC(=O)C(C)C (stereo partly drawn) [Example 5] | –
16 | 11 | 17 | > 2.5 | COC(=O)[C@H](CS[C@H]1C2C(=O)O[C@@H]3CC[C@H](C[C@@H]1C)[C@]23O)NC(=O)OC(C)(C)C (stereo partly drawn) [Example 6, 3β-(N-(tert-butylcarbonate)-L-cysteinemethyl ester)-2aβ,3-dihydrogaliellalactone] | –
17 | 97 | 101 | – | COC(=O)[C@H](CS[C@H]1C2C(=O)O[C@@H]3CC[C@H](C[C@@H]1C)[C@]23O)NC(=O)[C@@H](N)C(C)C (stereo partly drawn) [Example 14, 3β-(N-(L-valine)-L-cysteinemethyl ester)-2aβ,3-dihydrogaliellalactone] | chemical stability in 0.1 M PBS (in words) [2]: chemically stable
18 | – | – | 0.367 | COC(=O)C(N)CS[C@H]1C2C(=O)O[C@@H]3CC[C@H](C[C@@H]1C)[C@]23O (stereo partly drawn) [reference compound] | –
